This passage reports IC50 results from patent US8420681B2, “Dioxo-imidazolidine derivatives, which inhibit the enzyme SOAT-1, and pharmaceutical and cosmetic compositions containing them” (Galderma Research & Development, priority 2009, dated 2013).

This assay deals with T1, enzyme ACAT-1 (Homo sapiens, UniProt P35610).
T1 construct: endogenous in cells; host or cells: HepG2
T1 sequence (P35610 1-550): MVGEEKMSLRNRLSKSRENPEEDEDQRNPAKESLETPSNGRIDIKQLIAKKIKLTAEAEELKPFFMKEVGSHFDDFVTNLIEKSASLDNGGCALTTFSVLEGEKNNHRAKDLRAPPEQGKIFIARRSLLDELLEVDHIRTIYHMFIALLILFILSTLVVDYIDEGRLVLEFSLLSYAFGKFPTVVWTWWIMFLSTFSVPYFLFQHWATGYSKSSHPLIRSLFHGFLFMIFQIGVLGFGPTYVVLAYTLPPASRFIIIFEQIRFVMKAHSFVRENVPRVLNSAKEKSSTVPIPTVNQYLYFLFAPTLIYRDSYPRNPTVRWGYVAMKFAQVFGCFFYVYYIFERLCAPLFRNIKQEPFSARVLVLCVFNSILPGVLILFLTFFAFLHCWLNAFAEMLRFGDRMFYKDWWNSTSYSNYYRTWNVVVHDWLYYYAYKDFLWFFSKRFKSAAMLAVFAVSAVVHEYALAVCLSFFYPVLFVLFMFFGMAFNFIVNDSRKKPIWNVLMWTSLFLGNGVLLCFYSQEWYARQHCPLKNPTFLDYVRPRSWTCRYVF
The assay is described as follows: HepG2 NBD-cholesterol fluorescence test of inhibitory activity towards ACAT-1 (SOAT-1). Particulars: HepG2 cells, NBD-cholesterol 1 μg/ml, incubation 6 hours at 37° C., fluorescence read (490/540 nm). It counts as cell-based. On the procedure: The compounds (I) according to the invention, and also the pharmaceutically acceptable salts, solvates and/or hydrates thereof, have inhibitory properties on the enzyme SOAT-1. This inhibitory activity on the enzyme SOAT-1 is measured according to a HepG2 primary enzymatic test, as described in Example 23.
The compounds of formula (I) according to the invention were subjected to a test for evaluating their inhibitory activity towards the enzyme ACAT-1, inspired by the following publication: “Identification of ACAT1- and ACAT2-specific inhibitors using a novel, cell based fluorescence assay: individual ACAT uniqueness”, J. Lipid. Res. (2004) vol. 45, pages 378-386.
The principle of this test is based on the use of NBD-cholesterol, a cholesterol analogue whose fluorescence depends on its environment. When this molecule is in a polar environment, it is weakly fluorescent, whereas in a non-polar environment, it is strongly fluorescent. Free NBD-cholesterol becomes inserted in cell membranes and is weakly fluorescent in this polar environment. When NBD-cholesterol is esterified with ACAT, the NBD-cholesterol ester enters non-polar lipid droplets and is then strongly fluorescent.
The method below is applied: HepG2 cells are incubated in the presence of NBD-cholesterol (1 μg/ml) and of the test compound of formula (I) in black 96-well transparent-bottomed plates, at a rate of 30 000 cells per well. After incubation for 6 hours at 37° C. under 5% CO2, the medium is removed by turning upside-down and the cells are washed with twice 100 μl of PBS. After addition of 50 μl of lysis buffer (10 mM NaPO4, 1% Igepal), the plates are shaken for 5 minutes and the fluorescence is read (excitation at 490 nm, emission at 540 nm) on a Fusion machine (Perkin-Elmer).
Turning to `CCC(NC(=O)CN1C(=O)N(c2ccc(C)cc2)C2(CCCCC2)C1=O)c1cccc(C(F)(F)F)c1` (stereo not shown) [Compound 17, 2-(2,4-dioxo-1-p-tolyl-1,3-diaza-spiro[4.5]dec-3-yl)-N-[1-(3-trifluoromethyl-phenyl)propyl]-acetamide], the IC50 was 0.009 µM.
In the case of `CCC(NC(=O)CN1C(=O)N(c2ccc(C)cc2)C2(CCCCC2)C1=O)c1ccc(C)cc1` (stereo not shown) [Compound 13, 2-(2,4-dioxo-1-p-tolyl-1,3-diaza-spiro[4.5]dec-3-yl)-N-(1-p-tolyl-propyl)acetamide] it was 0.06 µM; in that of `Cc1ccc(N2C(=O)N(CC(=O)NC(c3ccccc3)C(C)C)C(=O)C23CCCCC3)cc1` (stereo not shown) [Compound 19, 2-(2,4-dioxo-1-p-tolyl-1,3-diaza-spiro[4.5]dec-3-yl)-N-(2-methyl-1-phenylpropyl)-acetamide], 0.023 µM.
With `CCC(NC(=O)CN1C(=O)N(c2ccc(C)cc2)C2(CCCCC2)C1=O)c1ccccc1` (stereo not shown) [Compound 4, 2-(2,4-dioxo-1-p-tolyl-1,3-diaza-spiro[4.5]dec-3-yl)-N-(1-phenyl-propyl)acetamide], the 50% inhibitory concentration (IC50) is 0.05 µM. Compared with the last compound, the IC50 is about 2.2-fold higher.
In the case of `Cc1ccc(N2C(=O)N(CC(=O)NC(c3ccccc3C)C(C)C)C(=O)C23CCCCC3)cc1` (stereo not shown) [Compound 9, 2-(2,4-dioxo-1-p-tolyl-1,3-diaza-spiro[4.5]dec-3-yl)-N-(2-methyl-1-o-tolylpropyl)-acetamide] it was 0.1 µM; in that of `CC[C@H](NC(=O)CN1C(=O)N(c2ccc(C)cc2)C2(CCCCC2)C1=O)c1ccccc1` [Compound 6, 2-(2,4-dioxo-1-p-tolyl-1,3-diaza-spiro[4.5]dec-3-yl)-N-((S)-1-phenylpropyl)-acetamide], 0.036 µM; in that of `CCCC(NC(=O)CN1C(=O)N(c2ccc(C)cc2)C2(CCCCC2)C1=O)c1ccccc1C` (stereo not shown) [Compound 8, 2-(2,4-dioxo-1-p-tolyl-1,3-diaza-spiro[4.5]dec-3-yl)-N-(1-o-tolyl-butyl)acetamide], 0.031 µM.
